The results in this text go back to patent publication US7501530B2, “Trifluoromethyl-thiophene carboxylic acid aniledes and use thereof as fungicides” (BASF Aktiengesellschaft, priority 2003, dated 2009).

The test system of one data set is Sphaerotheca fuliginea. As to the kind of experiment: Protective activity against mildew of cucumber (Use Example 3). The data set is classed as in vivo. The following applies: 63 ppm spray; cucumber seedlings, cotyledon area; inoculated 20 hours after spray coating dried; assessed after 7 days; untreated 90%. As to the method: Protective Activity Against Mildew of Cucumber Caused by Sphaerotheca fuliginea Leaves of potted cucumber seedlings of the cultivar “Chinese Snake”, in the cotyledon stage, were sprayed to runoff point with an aqueous suspension having the concentration stated below of active compounds. The suspension or emulsion was prepared from a stock solution containing 10% of active compound in a mixture comprising 85% of cyclohexanone and 5% of emulsifier. 20 hours after the spray coating had dried on, the plants were inoculated with an aqueous spore suspension of mildew of cucumber (Sphaerotheca fuliginea). The plants were then cultivated in a greenhouse at 20-24° C. and 60-80% relative atmospheric humidity for 7 days. The extent of mildew development was then determined visually in % infection of the cotyledon area.
In the case of `O=C(Nc1ccccc1C1CCCCC1)c1ccsc1C(F)(F)F` [II-3], the “Foliar infection [%] at 63 ppm” value is reported as 3%. On the same count and under the same terms, the figure for `O=C(Nc1ccccc1-c1ccc(F)cc1)c1ccsc1C(F)(F)F` [II-7] is 5%; for `O=C(Nc1ccccc1OC(F)(F)C(F)F)c1sccc1C(F)(F)F` [I-5] it is 5%.

Turning to `CC(C)c1ccc(-c2ccccc2NC(=O)c2sccc2C(F)(F)F)cc1` [I-13], the “Foliar infection [%] at 63 ppm” value was 0%. As to `O=C(Nc1ccccc1-c1ccc(Cl)cc1)c1ccsc1C(F)(F)F` [II-6], the “Foliar infection [%] at 63 ppm” value is given as 0%. The same measure, in the same setting: the value for `O=C(Nc1ccccc1C1CCCCC1)c1sccc1C(F)(F)F` [I-3] was 5%; that for `O=C(Nc1ccccc1-c1ccc(Cl)cc1)c1sccc1C(F)(F)F` [I-6] was 0%. On the same count and under the same terms, the figure for `O=C(Nc1ccccc1-c1ccccc1)c1sccc1C(F)(F)F` [I-12] is 0%. Take `O=C(Nc1ccccc1-c1ccc(F)cc1)c1sccc1C(F)(F)F` [I-7]: the “Foliar infection [%] at 63 ppm” value is 0%.

For the next data set, the system named is Botrytis cinerea. In words: Activity and persistency against gray mold on bell-pepper leaves (Use Example 1). The data set is classed as in vivo. The following applies: 63 ppm spray; bell-pepper seedlings; inoculated 7 days after treatment; assessed visually after 5 days; untreated 90%. As to the method: Activity and Persistency against Gray Mold, Caused by Botrytis cinerea, on Bell-pepper Leaves Bell-pepper seedlings of the cultivar “Neusiedler Ideal Elite” having 4-5 well-developed leaves were sprayed to runoff point with an aqueous suspension having the concentration stated below of active compounds. The suspension or emulsion was prepared from a stock solution containing 10% of active compound in a mixture comprising 85% of cyclohexanone and 5% of emulsifier. The plants were then cultivated for a further 7 days, and the treated plants were then inoculated with a spore suspension of Botrytis cinerea, which comprised 1.7×10^6 spores/ml in a 2% strength aqueous biomalt solution. The test plants were then placed in a climatized chamber at 22-24° C. in high atmospheric humidity. After 5 days, the extent of the fungal infection on the leaves could be determined visually in %, giving not only an indication of the fungicidal action of the substances but also of the persistency.
On to `CC(C)Oc1cccc(NC(=O)c2ccsc2C(F)(F)F)c1` [II-8, N-(3-isopropoxyphenyl)-2-trifluoromethylthiophene-3-carboxamide], for which the “Foliar infection [%] at 63 ppm” value is recorded as 5%. Still for that read-out and setting: the value for `O=C(Nc1ccccc1C1CCCCC1)c1ccsc1C(F)(F)F` [II-3] was 5%; that for `O=C(Nc1ccccc1C1CCCC1)c1sccc1C(F)(F)F` [I-2] was 7%. For `CCC(C)c1ccccc1NC(=O)c1sccc1C(F)(F)F` (stereo not drawn) [I-1], the “Foliar infection [%] at 63 ppm” value turned out to be 5%. The same measure, in the same setting: the value for `O=C(Nc1ccccc1-c1ccc(F)cc1)c1ccsc1C(F)(F)F` [II-7] was 1%; that for `O=C(Nc1ccccc1OC(F)(F)C(F)F)c1sccc1C(F)(F)F` [I-5] was 3%; that for `O=C(Nc1cccc(OC2CCCC2)c1)c1sccc1C(F)(F)F` [I-11] was 7%. `O=C(Nc1ccccc1C1CCCCC1)c1sccc1C(F)(F)F` [I-3]: the “Foliar infection [%] at 63 ppm” value turned out to be 3%.

In the case of `O=C(Nc1ccccc1C1CCCC1)c1ccsc1C(F)(F)F` [II-2], the “Foliar infection [%] at 63 ppm” value is on record as 10%. Take `O=C(Nc1ccccc1-c1ccc(Cl)cc1)c1sccc1C(F)(F)F` [I-6]: the “Foliar infection [%] at 63 ppm” value is 1%. Same read-out and setting: the value for `CC(C)Oc1cccc(NC(=O)c2sccc2C(F)(F)F)c1` [I-8] was 10%; that for `O=C(Nc1ccccc1OC(F)(F)C(F)F)c1ccsc1C(F)(F)F` [II-5] was 3%. `O=C(Nc1ccccc1-c1ccc(F)cc1)c1sccc1C(F)(F)F` [I-7]: the “Foliar infection [%] at 63 ppm” value was determined as 1%. Take `CCCCCCOc1cccc(NC(=O)c2ccsc2C(F)(F)F)c1` [II-10]: the “Foliar infection [%] at 63 ppm” value amounted to 10%.

In another data set the test system is Botrytis cinerea. In words: Protective activity against gray mold on bell-pepper leaves (Use Example 2). The following applies: 250 ppm spray; bell-pepper seedlings; inoculated the next day; assessed visually after 5 days; untreated 100%. The data set is classed as in vivo. The text has this:
Protective Activity against Gray Mold, Caused by Botrytis cinerea, on Bell-pepper Leaves Bell-pepper seedlings of the cultivar “Neusiedler Ideal Elite” having 4-5 well-developed leaves were sprayed to runoff point with an aqueous suspension having the concentration stated below of active compounds. The active compounds were separately prepared as a stock solution containing 0.25% by weight of active compound in acetone or dimethyl sulfoxide. This solution was admixed with 1% by weight of Emulgator Uniperol® EL (wetting agent based on ethoxylated alkylphenols which has an emulsifying and dispersing effect) and diluted with water to the desired concentration. The next day, the treated plants were inoculated with a spore suspension of Botrytis cinerea, comprising 1.7×10^6 spores/ml in a 2% strength aqueous biomalt solution. The test plants were then placed in a climatized chamber at 22-24° C. in high atmospheric humidity. After 5 days, the extent of the fungal infection on the leaves could be determined visually in %.
Take `Cc1ccccc1-c1ccccc1NC(=O)c1cscc1C(F)(F)F` [III-4]: the “Foliar infection [%] at 250 ppm” value is 3%. The same measure, in the same setting: the value for `CCC(C)c1ccccc1NC(=O)c1cscc1C(F)(F)F` (stereo not drawn) [III-5] was 3%; that for `O=C(Nc1ccccc1C1CCCC1)c1cscc1C(F)(F)F` [III-7] was 7%.

Tested on in the next data set: not given
Test: not given
Conditions: not given
Usually melting point stands for the temperature, or range, at which the solid turns liquid. Consider `O=C(Nc1ccccc1OCC(F)(F)F)c1sccc1C(F)(F)F` [I-14, N-(2-(2,2,2-trifluoroethoxy)phenyl)-3-trifluoromethylthiophene-2-carboxamide], for which the melting point was in the range of 125 to 127 °C.
